Where “and” joins values, the source holds several entries; their conditions need not be identical. Equal values may be shown once.

Data set [1] in a line: Storage stability of pseudopolymorphic forms (XRPD after storage). The format is physicochemical. The note with it: monohydrate II as starting material; one, three and six months; container, temperature, relative humidity per example.
For data set [2], the system named is thromboxane analog U46619 induced PAH in minipigs. The data set is described as follows: Haemodynamics (PAP, BP) in the anesthetized thromboxane challenged PAH minipig after inhaled (nebulized) application (C-2.1). Particulars: inhaled; for BP % change vs. baseline / PAP % change vs. baseline: 100 μg/kg nominal dose, individual animals. It is filed as in vivo, Göttingen minipig. As to the method:
Experiments were carried out in anesthetized Göttingen minipigs, anesthetized rats and conscious, telemetrically instrumented dogs. Acute pulmonary hypertension was induced for example by infusion of a thromboxane A2 analogon, by acute hypoxia treatment or hypoxia treatment over a number of weeks and/or by administration of monocrotaline. Test substances were applied via nebulization using the Nebutec® or Aeroneb® Pro nebulizer system, and/or by means of powder and/or solution applicators for experimental intratracheal administration (Liquid MicroSprayer®, Dry Powder Insufflator™, MicroSprayer®, Penn-Century Inc., Wyndmoor, PA, USA) or after solid nebulization inserted into the inspiration arm of the ventilation. Compounds were employed as solids or solutions depending on the molecular structure and the technical possibility depending on the experiment. The haemodynamic signals were recorded and evaluated by means of pressure transducers/amplifiers (Combitransducer B. Braun, Melsungen, Germany or CardioMEMS Inc., Atlanta, GA, USA) and Ponemah® or CardioMems® as data aquisition software. After long-term experiments (for example monocrotaline rat), it is also possible to carry out a histological evaluation.
Healthy Gottingen Minipigs® Ellegaard (Ellegaard, Denmark) of both sexes and having a weight of 2-6 kg were used. The animals were sedated by i.m. administration of about 25 mg/kg ketamine and about 10 mg/kg azaperone. Anaesthesia was initiated by i.v. administration of about 2 mg/kg ketamine and about 0.3 mg/kg midazolam. Maintenance of anaesthesia was by i.v. administration of about 7.5-30 mg/kg/h ketamine and about 1-4 mg/kg/h midazolam (rate of infusion 1-4 ml/kg/h) and about 150 μg/kg/h pancuronium bromide (for example Pancuronium-Actavis). After intubation, the animals were ventilated by the ventilator at a constant respiratory volume (10-12 ml/kg, 35 breaths/min; Avea®, Viasys Healthcare, USA, or Engstrom Carestation, GE Healthcare, Freiburg, Germany) such that an end-tidal CO2 concentration of about 5% was achieved. Ventilation was performed with room air, enriched with about 40% oxygen (normoxia). For the measurement of the haemodynamic parameters such as pulmonary arterial pressure (PAP), blood pressure (BP) and heart rate (HR), catheters were inserted into the carotid artery to measure the blood pressure, and a Swan-Ganz® catheter was introduced in a flow-directed manner via the jugular vein into the pulmonary artery. The haemodynamic signals were recorded and evaluated by means of pressure transducers (Combitransducer, B. Braun, Melsungen, Germany)/amplifiers and Ponemah® as data aquisition software.
After the instruments have been placed into the animals, continuous infusion of a thromboxane A2 analog was initiated to increase the pulmonary arterial pressure. […] D0400, or Cayman Chemical Company, cat. no. 16440), dissolved in physiological saline, were infused to achieve an increase of the mean pulmonary arterial pressure to values of over 25 mmHg. 30 minutes after the start of the infusion, a plateau was reached, and the experiment was started.
The test substances were administered as i.v. infusion or by inhalation. For the preparation of the solution for inhalation, the following procedure was adopted: For an animal having a weight of 4 kg, to prepare the stock solution (300 μg/kg), 1.2 mg of the test compound were weighed out and dissolved in a total volume of 3 ml (1% DMSO, 99% 0.2% strength citric acid solution, 1 N aqueous sodium hydroxide solution to adjust the pH to 8). The solution was then diluted to the concentration employed using 0.2% strength citric acid which had been adjusted to pH 8 beforehand with aqueous sodium hydroxide solution. In each test, 3 ml of the solution of test compound per 4 kg animal were nebulized in the inhalation arm of the respiratory circuit using the Aeroneb® Pro nebulizer system. The mean nebulization time was about 7 min from the start of the nebulization.

The nature of data set [3]: Thermal stability of the solid (90° C., 7 days, HPLC peak areas). The format is physicochemical. As to the method: 0.3 mg of the test compound, e.g. comparative example 11 were solved in 0.1 ml dimethylsulfoxide and 0.4 ml acetonitrile. Then 1.0 ml water was added. For complete dissolution the HPLC vial was shaken and sonicated. This solution was immediately analyzed by HPLC (reference at t0). 0.3 mg of the test compound was weighed into another HPLC vial. The vial was capped and stored for 7 days in a heating block at 90° C.
After this time the vial was decapped and 0.1 ml dimethylsulfoxide and 0.4 ml acetonitrile were added to the stressed compound. Then 1.0 ml water was added. For complete dissolution the HPLC vial was shaken and sonicated. The sample was analyzed by HPLC (sample after 1 week). The peak areas in percentage are used for quantification.

The test system of data set [4] is guinea pig trachea pre-contracted with carbachol. Briefly: Bronchorelaxation in vitro: carbachol pre-contracted guinea pig trachea rings, wash-out recovery factor (C-3.1). The method, then: Male Dunkin Hartley guinea pig were euthanized using carbon dioxide. The primary bronchus was removed and placed in ice-cold Krebs-Henseleit buffer of following composition (in mmol/l): […] For recording of isometric tension, the bronchial rings were mounted between two hooks. One hook was connected to a force transducer the other was moveable and allowed a precise adjustment of resting tension at 1.5 g. During the equilibration period of 60 min the tissue was washed every 20 min with buffer. […] After 30 min, a cumulative dose response curve of the test compound was constructed. Every concentration was incubated till the response was stable. […] The relaxation was expressed as percentage tension. […] The recovery factor was calculated as a ratio of bronchodilation 1 h after compound application and bronchodilation 1 h after removal (wash out) of test compound. […] Relaxation via Cinaciguat (comparative example 1) and Riociguat (comparative example 2) reached a steady state within the 1 h incubation time. […] In contrast, relaxation induced by comparative example 11 was further progressing during the wash out period (recovery factor 1.41).

For `O.O=C(O)c1ccc(CCN(CCc2ccccc2OCc2ccc(-c3ccc(C(F)(F)F)cc3)cc2Cl)[C@H]2CCCc3nc(C(=O)O)ccc32)cc1` [7d], in data set [1], the “Result (form after storage)” value was “monohydrate I”.

For `Cc1ccc2oc(-c3ccc(COc4ccccc4CCN(CCCCC(=O)O)C4CCCc5nc(C(=O)O)ccc54)cc3)nc2c1` (single isomer, unassigned; (+)) [comparative example 5, (+)-5-{(4-Carboxybutyl)[2-(2-{[4-(5-methyl-1,3-benzoxazol-2-yl)benzyl]oxy}phenyl)ethyl]amino}-5,6,7,8-tetrahydroquinoline-2-carboxylic acid], the “BP % change vs. baseline” value was 100.0% in data set [2] (time 80 min); 100.0% in data set [2] (time 90 min); 99.1% and 97.7% and 101.8% in data set [2] (time 100 min); 99.1% and 97.7% and 100.0% in data set [2] (time 110 min); 99.1% and 96.6% and 97.3% in data set [2] (time 120 min); 98.1% and 97.7% and 97.3% in data set [2] (time 130 min). Further, the “BP % change vs. baseline” value is 98.1% and 98.9% and 97.3% in data set [2] (time 140 min); 95.3% and 100.0% and 97.3% in data set [2] (time 150 min); 96.2% and 101.1% and 98.2% in data set [2] (time 160 min); 95.3% and 101.1% and 96.4% in data set [2] (time 170 min); 95.3% and 101.1% and 97.3% in data set [2] (time 180 min); 94.3% and 102.3% and 96.4% in data set [2] (time 190 min). Further, the “BP % change vs. baseline” value is 92.5% and 103.4% and 95.5% in data set [2] (time 200 min); 91.5% and 102.3% and 96.4% in data set [2] (time 210 min); 91.5% and 103.4% and 96.4% in data set [2] (time 220 min); 91.5% and 103.4% and 94.6% in data set [2] (time 230 min); 90.6% and 102.3% and 94.6% in data set [2] (time 240 min); 90.6% and 102.3% and 94.6% in data set [2] (time 250 min). Also, the “BP % change vs. baseline” value is 89.6% and 101.1% and 93.8% in data set [2] (time 260 min); 90.6% and 103.4% and 93.8% in data set [2] (time 270 min); 89.6% and 100.0% and 93.8% in data set [2] (time 280 min); 88.7% and 102.3% and 92.9% in data set [2] (time 290 min); 89.6% and 100.0% and 92.0% in data set [2] (time 300 min); 89.6% and 100.0% and 91.1% in data set [2] (time 310 min). Further, the “BP % change vs. baseline” value in data set [2] (time 320 min) is 89.6% and 105.7% and 91.1%; in data set [2] (time 330 min) it was 89.6% and 98.9% and 89.3%. Further, the “PAP % change vs. baseline” value is 100.0% in data set [2] (time 80 min); 101.5% and 99.2% and 102.0% in data set [2] (time 90 min); 98.0% and 90.0% and 93.8% in data set [2] (time 100 min); 91.7% and 86.4% and 79.0% in data set [2] (time 110 min); 90.0% and 86.1% and 73.7% in data set [2] (time 120 min); 87.6% and 88.6% and 72.9% in data set [2] (time 130 min). Further, the “PAP % change vs. baseline” value in data set [2] (time 140 min) was 87.1% and 93.0% and 73.7%; in data set [2] (time 150 min), 87.6% and 95.0% and 75.1%; in data set [2] (time 160 min) it was 88.7% and 96.4% and 77.8%; in data set [2] (time 170 min), 89.8% and 97.8% and 79.2%; in data set [2] (time 180 min) it was 90.0% and 100.6% and 81.5%; in data set [2] (time 190 min) it was 90.9% and 101.9% and 81.9%. The “PAP % change vs. baseline” value in data set [2] (time 200 min) was 91.4% and 102.8% and 85.2%; in data set [2] (time 210 min), 92.7% and 104.2% and 88.1%; in data set [2] (time 220 min) it was 94.5% and 105.8% and 91.3%; in data set [2] (time 230 min), 95.1% and 106.1% and 93.1%; in data set [2] (time 240 min), 95.5% and 105.8% and 92.9%; in data set [2] (time 250 min) it was 96.5% and 105.8% and 94.3%. The “PAP % change vs. baseline” value is 98.1% and 106.4% and 95.5% in data set [2] (time 260 min); 98.6% and 107.5% and 95.9% in data set [2] (time 270 min); 98.6% and 106.4% and 97.2% in data set [2] (time 280 min); 99.6% and 105.8% and 98.4% in data set [2] (time 290 min); 100.1% and 107.0% and 98.6% in data set [2] (time 300 min); 101.7% and 107.5% and 99.6% in data set [2] (time 310 min). Moreover, the “PAP % change vs. baseline” value in data set [2] (time 320 min) is 102.8% and 109.5% and 100.1%; in data set [2] (time 330 min), 102.9% and 106.1% and 99.3%. For the same compound, in data set [2] (nominal dose of 100 μg/kg), the duration of action entry is “only a moderate duration of action”. In addition, in data set [2] (nominal dose of 100 μg/kg), the lung selectivity result is “good lung selectivity”. Further, in data set [3], the thermal stability entry is given as “limited thermal stability”.

With `O=C(O)CCCCN(CCc1ccccc1OCc1ccc(CCc2ccccc2)cc1)Cc1ccc(C(=O)O)cc1` [comparative example 1, Cinaciguat], in data set [4] (1 nmol/l), the “Relaxation (%) (timepoint at 70 min) Mean” value is 60.4% and the “Relaxation (%) (timepoint at 130 min) Mean” value is reported as 66.2%.

Turning to “Ethyl 5-{[2-(2-{[3-chloro-4′-(trifluoromethyl)biphenyl-4-yl]methoxy}phenyl)ethyl]amino}-5,6,7,8-tetrahydroquinoline-2-carboxylate dihydrochloride [7a]”, the “Result (form after storage)” value in data set [1] is given as “monohydrate II”.

Consider `COC(=O)N(C)c1c(N)nc(-c2nn(Cc3ccccc3F)c3ncccc23)nc1N` [comparative example 2, Riociguat], for which, in data set [4] (1 μmol/l), the “Relaxation (%) (timepoint at 70 min) Mean” value came out at 29.1% and the “Relaxation (%) (timepoint at 130 min) Mean” value was found to be 85.1%.
